{"source": "Sander's compilation of Henry's law constants (doi:10.1016/s0378-3812(02)00087-0)"}
{"experiment": "Henry solubility constant Hcp at 303 K (mol/(m3 Pa))", "details": "reference: Hovorka et al. (2002)"}
{"compound": "CCOCCOC(C)=O", "note": "[2-ethoxyethyl ethanoate]", "Henry solubility constant Hcp at 303 K": 3}
{"compound": "COC(=O)CC(C)=O", "note": "[3-oxobutanoic acid, methyl ester]", "Henry solubility constant Hcp at 303 K": 6.4}
{"compound": "COCCOC(C)=O", "note": "[2-methoxyethyl ethanoate]", "Henry solubility constant Hcp at 303 K": 3}
{"compound": "C=CC#N", "note": "[2-propenenitrile]", "Henry solubility constant Hcp at 303 K": 0.076}
{"compound": "COCC(=O)OC", "note": "[methyl methoxyacetate]", "Henry solubility constant Hcp at 303 K": 2.5}
{"experiment": "Henry solubility constant Hcp at 298.15 K (mol/(m3 Pa))", "details": "reference: Hovorka et al. (2002)"}
{"compound": "CC(C)CO", "note": "[2-methyl-1-propanol]", "Henry solubility constant Hcp": 0.67}
{"compound": "O=C1CCCC1", "note": "[cyclopentanone]", "Henry solubility constant Hcp": 0.82}
{"compound": "CC#N", "note": "[ethanenitrile]", "Henry solubility constant Hcp": 0.32}
{"compound": "O=C1CCCCC1", "note": "[cyclohexanone]", "Henry solubility constant Hcp": 0.86}
{"compound": "COC(C)=O", "note": "[methyl ethanoate]", "Henry solubility constant Hcp": 0.083}
{"compound": "OC1CCCC1", "note": "[cyclopentanol]", "Henry solubility constant Hcp": 2.2}
